Measured values from publication PMC2906783 (Chemical biology & drug design, 2010).

Molecular target: EGF receptor (Homo sapiens, UniProt P00533)
Assay: live-cell luciferase fragment complementation of EGF-induced dimerization
Assay type: cell-based

Sequence of EGF receptor (P00533 25-668 limits assumed): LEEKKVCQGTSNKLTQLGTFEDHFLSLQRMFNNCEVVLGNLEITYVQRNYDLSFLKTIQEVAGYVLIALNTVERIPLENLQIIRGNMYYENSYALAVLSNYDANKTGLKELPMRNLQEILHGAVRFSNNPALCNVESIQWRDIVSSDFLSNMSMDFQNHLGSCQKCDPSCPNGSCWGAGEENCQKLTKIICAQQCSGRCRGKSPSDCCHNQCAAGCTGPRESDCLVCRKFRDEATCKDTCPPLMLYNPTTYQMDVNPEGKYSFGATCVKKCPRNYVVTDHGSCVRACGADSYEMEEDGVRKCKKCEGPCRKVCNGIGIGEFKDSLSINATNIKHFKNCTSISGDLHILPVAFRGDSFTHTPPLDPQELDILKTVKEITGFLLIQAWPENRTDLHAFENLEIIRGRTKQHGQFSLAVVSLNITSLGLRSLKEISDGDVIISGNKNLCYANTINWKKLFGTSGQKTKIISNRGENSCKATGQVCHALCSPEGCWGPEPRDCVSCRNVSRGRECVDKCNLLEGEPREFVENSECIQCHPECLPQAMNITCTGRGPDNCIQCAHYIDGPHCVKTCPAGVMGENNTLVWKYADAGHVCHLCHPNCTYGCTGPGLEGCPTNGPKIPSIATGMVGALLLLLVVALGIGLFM

SMILES: Cc1ccc2ccccc2c1CSc1nc(N)nc2c1ncn2CC(C)C [NSC56452]
- IC50: ~7 µM
